Measurements as given in ChEMBL document CHEMBL1201861, “Genomics of Drug Sensitity in Cancer screening data, Wellcome Trust Sanger Institute”.

Key:
Assay in all cases: cells
Conditions in all cases: Homo sapiens
L-363 = assay type: functional, cell-based
Description: SANGER: Inhibition of human L-363 cell growth in a cell viability assay.

HL-60 = assay type: functional, cell-based;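 note: growth inhibition of human HL-60 cells, read out with a cell viability assay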
Description: SANGER: Inhibition of human HL-60 cell growth in a cell viability assay.

HD-MY-Z = assay type: functional, cell-based;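 note: growth inhibition of HD-MY-Z cells, read out with a cell viability assay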
Description: SANGER: Inhibition of human HD-MY-Z cell growth in a cell viability assay.

IST-MES1 = assay type: functional, cell-based;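 note: growth inhibition of IST-MES1 cells, measured with a cell viability assay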
Description: SANGER: Inhibition of human IST-MES1 cell growth in a cell viability assay.

MC116 = assay type: functional, cell-based;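 note: growth inhibition of MC116 cells, read out with a cell viability assay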
Description: SANGER: Inhibition of human MC116 cell growth in a cell viability assay.

LU-134-A = assay type: functional, cell-based
Description: SANGER: Inhibition of human LU-134-A cell growth in a cell viability assay.

KS-1 = assay type: functional, cell-based;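 note: growth inhibition of KS-1 cells, read out with a cell viability assay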
Description: SANGER: Inhibition of human KS-1 cell growth in a cell viability assay.

BT-474 = assay type: functional, cell-based
Description: SANGER: Inhibition of human BT-474 cell growth in a cell viability assay.

NKM-1 = assay type: functional, cell-based;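 note: growth inhibition of NKM-1 cells, read out with a cell viability assay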
Description: SANGER: Inhibition of human NKM-1 cell growth in a cell viability assay.

HT = assay type: functional, cell-based
Description: SANGER: Inhibition of human HT cell growth in a cell viability assay.

LS-411N = assay type: functional, cell-based
SF-268 = assay type: functional, cell-based;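 note: growth inhibition of SF-268 cells determined with a cell viability assay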
Description: SANGER: Inhibition of human SF268 cell growth in a cell viability assay.

SF-126 = assay type: functional, cell-based;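 note: growth inhibition of human SF126 cells, read out with a cell viability assay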
Description: SANGER: Inhibition of human SF126 cell growth in a cell viability assay.

no-10 = assay type: functional, cell-based;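 note: growth inhibition of no-10 cells, read out with a cell viability assay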
Description: SANGER: Inhibition of human no-10 cell growth in a cell viability assay.

VA-ES-BJ = assay type: functional, cell-based;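 note: growth inhibition of the VA-ES-BJ cell line, read out by a cell viability assay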
Description: SANGER: Inhibition of human VA-ES-BJ cell growth in a cell viability assay.

BB49-HNC = assay type: functional, cell-based;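 note: cell viability assay read-out, reported as inhibition of BB49-HNC cell growth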
Description: SANGER: Inhibition of human BB49-HNC cell growth in a cell viability assay.

HC-1 = assay type: functional, cell-based;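 note: growth inhibition of HC-1 cells measured by a cell viability assay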
Description: SANGER: Inhibition of human HC-1 cell growth in a cell viability assay.

NCI-H82 = assay type: functional, cell-based;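 note: growth inhibition of NCI-H82 cells, measured with a cell viability readout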
Description: SANGER: Inhibition of human NCI-H82 cell growth in a cell viability assay.

TE-5 = assay type: functional, cell-based;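 note: inhibition of cell growth, read out by a cell viability assay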
Description: SANGER: Inhibition of human TE-5 cell growth in a cell viability assay.

NCI-H1355 = assay type: functional, cell-based;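 note: growth inhibition of human NCI-H1355 cells, read out by a cell viability assay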
Description: SANGER: Inhibition of human NCI-H1355 cell growth in a cell viability assay.

MHH-NB-11 = assay type: functional, cell-based;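 note: growth inhibition of human MHH-NB-11 cells, read out by a cell viability assay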
Description: SANGER: Inhibition of human MHH-NB-11 cell growth in a cell viability assay.

DOHH-2 = assay type: functional, cell-based;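 note: growth inhibition of human DOHH-2 cells, read out with a cell viability assay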
Description: SANGER: Inhibition of human DOHH-2 cell growth in a cell viability assay.

EC-GI-10 = assay type: functional, cell-based
Description: SANGER: Inhibition of human EC-GI-10 cell growth in a cell viability assay.

MZ2-MEL = assay type: functional, cell-based;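 note: growth inhibition of MZ2-MEL cells read out with a cell viability assay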
Description: SANGER: Inhibition of human MZ2-MEL cell growth in a cell viability assay.

CTB-1 = assay type: functional, cell-based
Description: SANGER: Inhibition of human CTB-1 cell growth in a cell viability assay.

MOLT-4 = assay type: functional, cell-based;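 note: growth inhibition of MOLT-4 cells, determined with a cell viability readout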
Description: SANGER: Inhibition of human MOLT-4 cell growth in a cell viability assay.

NCI-H747 = assay type: functional, cell-based;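 note: growth inhibition of human NCI-H747 cells, read out by a cell viability assay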
Description: SANGER: Inhibition of human NCI-H747 cell growth in a cell viability assay.

L-428 = assay type: functional, cell-based
Description: SANGER: Inhibition of human L-428 cell growth in a cell viability assay.

MFH-ino = assay type: functional, cell-based;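 note: growth inhibition of human MFH-ino cells, read out by a cell viability assay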
Description: SANGER: Inhibition of human MFH-ino cell growth in a cell viability assay.

OVCAR-4 = assay type: functional, cell-based;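 note: growth inhibition of human OVCAR-4 cells, measured with a cell viability assay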
Description: SANGER: Inhibition of human OVCAR-4 cell growth in a cell viability assay.

NMC-G1 = assay type: functional, cell-based;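 note: growth inhibition of the NMC-G1 cell line, measured with a cell viability read-out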
Description: SANGER: Inhibition of human NMC-G1 cell growth in a cell viability assay.

LAMA-84 = assay type: functional, cell-based;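 note: growth inhibition of LAMA-84 cells, read out with a cell viability assay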
Description: SANGER: Inhibition of human LAMA-84 cell growth in a cell viability assay.

EW-11 = assay type: functional, cell-based;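 note: growth inhibition of human EW-11 cells, measured with a cell viability assay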
Description: SANGER: Inhibition of human EW-11 cell growth in a cell viability assay.

NCI-H1299 = assay type: functional, cell-based;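 note: growth inhibition of human NCI-H1299 cells, read out by a cell viability assay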
Description: SANGER: Inhibition of human NCI-H1299 cell growth in a cell viability assay.

LXF-289 cell line = assay type: functional, cell-based
Description: SANGER: Inhibition of human LXF-289 cell growth in a cell viability assay.

ES7 = assay type: functional, cell-based;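 note: growth inhibition of cultured human ES7 cells, read out as cell viability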
Description: SANGER: Inhibition of human ES7 cell growth in a cell viability assay.

NOMO-1 = assay type: functional, cell-based;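 note: growth inhibition of human NOMO-1 cells measured by a cell viability assay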
Description: SANGER: Inhibition of human NOMO-1 cell growth in a cell viability assay.

EM-2 = assay type: functional, cell-based;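 note: growth inhibition of EM-2 cells, read out with a cell viability assay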
Description: SANGER: Inhibition of human EM-2 cell growth in a cell viability assay.

DSH1 = assay type: functional, cell-based;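 note: growth inhibition of human DSH1 cells, measured with a cell viability readout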
Description: SANGER: Inhibition of human DSH1 cell growth in a cell viability assay.

LS-1034 = assay type: functional, cell-based
Description: SANGER: Inhibition of human LS-1034 cell growth in a cell viability assay.

NCI-H526 = assay type: functional, cell-based;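 note: growth inhibition of the human NCI-H526 cell line, measured by a cell viability assay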
Description: SANGER: Inhibition of human NCI-H526 cell growth in a cell viability assay.

MLMA = assay type: functional, cell-based;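 note: growth inhibition of MLMA cells (human), determined through a cell viability readout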
Description: SANGER: Inhibition of human MLMA cell growth in a cell viability assay.

EW-16 = assay type: functional, cell-based;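 note: growth inhibition of human EW-16 cells, read out as cell viability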
Description: SANGER: Inhibition of human EW-16 cell growth in a cell viability assay.

NCI-H720 = assay type: functional, cell-based;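 note: growth inhibition of human NCI-H720 cells determined by a cell viability assay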
Description: SANGER: Inhibition of human NCI-H720 cell growth in a cell viability assay.

J-RT3-T3-5 = assay type: functional, cell-based;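 note: cell viability assay measuring growth inhibition of human J-RT3-T3-5 cells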
Description: SANGER: Inhibition of human J-RT3-T3-5 cell growth in a cell viability assay.

DU-4475 = assay type: functional, cell-based
Description: SANGER: Inhibition of human DU-4475 cell growth in a cell viability assay.

RS4-11 = assay type: functional, cell-based;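 note: growth inhibition of RS4-11 cells, read out by a cell viability assay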
Description: SANGER: Inhibition of human RS4-11 cell growth in a cell viability assay.

HCE-T = assay type: functional, cell-based;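 note: cell viability assay read-out, reporting inhibition of HCE-T cell growth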
Description: SANGER: Inhibition of human HCE-T cell growth in a cell viability assay.

K562 = assay type: functional, cell-based
Description: SANGER: Inhibition of human K-562 cell growth in a cell viability assay.

SH-4 = assay type: functional, cell-based;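 note: growth inhibition of SH-4 cells, read out with a cell viability assay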
Description: SANGER: Inhibition of human SH-4 cell growth in a cell viability assay.

NCI-H2126 = assay type: functional, cell-based;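 note: growth inhibition of the cancer cell line, determined with a cell viability readout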
Description: SANGER: Inhibition of human NCI-H2126 cell growth in a cell viability assay.

COLO-320-HSR = assay type: functional, cell-based;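 note: growth inhibition of COLO-320-HSR cells, determined with a cell viability assay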
Description: SANGER: Inhibition of human COLO-320-HSR cell growth in a cell viability assay.

GT3TKB = assay type: functional, cell-based;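 note: growth inhibition of the cell line, read out with a cell viability assay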
Description: SANGER: Inhibition of human GT3TKB cell growth in a cell viability assay.

LAN-6 = assay type: functional, cell-based;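 note: growth inhibition of LAN-6 cells, determined with a cell viability assay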
Description: SANGER: Inhibition of human LAN-6 cell growth in a cell viability assay.

D-263MG = assay type: functional, cell-based
Description: SANGER: Inhibition of human D-263MG cell growth in a cell viability assay.

ETK-1 = assay type: functional, cell-based;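 note: growth inhibition of human ETK-1 cells, read out with a cell viability assay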
Description: SANGER: Inhibition of human ETK-1 cell growth in a cell viability assay.

COLO-829 = assay type: functional, cell-based
Description: SANGER: Inhibition of human COLO-829 cell growth in a cell viability assay.

MV4-11 = assay type: functional, cell-based, MV-4-11;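 note: cell viability readout measuring growth inhibition of human MV-4-11 cells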
Description: SANGER: Inhibition of human MV-4-11 cell growth in a cell viability assay.

GR-ST = assay type: functional, cell-based
Description: SANGER: Inhibition of human GR-ST cell growth in a cell viability assay.

KE-37 = assay type: functional, cell-based;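 note: growth inhibition of KE-37 cells, read out with a cell viability assay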
Description: SANGER: Inhibition of human KE-37 cell growth in a cell viability assay.

C2BBe1 = assay type: functional, cell-based;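 note: growth inhibition of C2BBe1 cells, read out through a viability assay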
Description: SANGER: Inhibition of human C2BBe1 cell growth in a cell viability assay.

PSN1 = assay type: functional, cell-based;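 note: suppression of growth of human PSN1 cells, read out by a cell viability assay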
Description: SANGER: Inhibition of human PSN1 cell growth in a cell viability assay.

SW 962 = assay type: functional, cell-based;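 note: growth inhibition of human SW962 cells, read out by a cell viability assay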
Description: SANGER: Inhibition of human SW962 cell growth in a cell viability assay.

ONS-76 = assay type: functional, cell-based;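 note: growth inhibition of human ONS-76 cells, read out with a cell viability assay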
Description: SANGER: Inhibition of human ONS-76 cell growth in a cell viability assay.

ML-2 = assay type: functional, cell-based
Description: SANGER: Inhibition of human ML-2 cell growth in a cell viability assay.

LB373-MEL-D = assay type: functional, cell-based
Description: SANGER: Inhibition of human LB373-MEL-D cell growth in a cell viability assay.

For `CCn1c(-c2nonc2N)nc2cnc(Oc3cccc(NC(=O)c4ccc(OCCN5CCOCC5)cc4)c3)cc21` [GSK-269962A], the IC50 (L-363) was > 2500 nM, the IC50 (HL-60) was > 2500 nM and the IC50 (HD-MY-Z) was > 2500 nM. The IC50 (IST-MES1) was > 2500 nM, the IC50 (MC116) was > 2500 nM and the IC50 (LU-134-A) was > 2500 nM. For the same compound, the IC50 (KS-1) was 4.6 nM, the IC50 (BT-474) was > 2500 nM and the IC50 (NKM-1) was > 2500 nM. For the same compound, the IC50 (HT) was > 2500 nM, the IC50 (LS-411N) was > 2500 nM and the IC50 (SF-268) was > 2500 nM. For the same compound, the IC50 (SF-126) was > 2500 nM, the IC50 (no-10) was 668 nM and the IC50 (VA-ES-BJ) was > 2500 nM. The IC50 (BB49-HNC) was 7.89 nM, the IC50 (HC-1) was > 2500 nM and the IC50 (NCI-H82) was > 2500 nM. The IC50 (TE-5) was > 2500 nM, the IC50 (NCI-H1355) was > 2500 nM and the IC50 (MHH-NB-11) was 66.9 nM. For the same compound, the IC50 (DOHH-2) was > 2500 nM, the IC50 (EC-GI-10) was > 2500 nM and the IC50 (MZ2-MEL) was > 2500 nM. For the same compound, the IC50 (CTB-1) was > 2500 nM, the IC50 (MOLT-4) was > 2500 nM and the IC50 (NCI-H747) was > 2500 nM. The IC50 (L-428) was > 2500 nM, the IC50 (MFH-ino) was 644 nM and the IC50 (OVCAR-4) was > 2500 nM. The IC50 (NMC-G1) was > 2500 nM, the IC50 (LAMA-84) was > 2500 nM and the IC50 (EW-11) was > 2500 nM. The IC50 (NCI-H1299) was > 2500 nM, the IC50 (LXF-289 cell line) was > 2500 nM and the IC50 (ES7) was > 2500 nM. The IC50 (NOMO-1) was > 2500 nM, the IC50 (EM-2) was 2460 nM and the IC50 (DSH1) was > 2500 nM. For the same compound, the IC50 (LS-1034) was > 2500 nM, the IC50 (NCI-H526) was > 2500 nM and the IC50 (MLMA) was > 2500 nM. For the same compound, the IC50 (EW-16) was > 2500 nM, the IC50 (NCI-H720) was 2450 nM and the IC50 (J-RT3-T3-5) was > 2500 nM. The IC50 (DU-4475) was > 2500 nM, the IC50 (RS4-11) was > 2500 nM and the IC50 (HCE-T) was > 2500 nM. The IC50 (K562) was > 2500 nM, the IC50 (SH-4) was > 2500 nM and the IC50 (NCI-H2126) was > 2500 nM. For the same compound, the IC50 (COLO-320-HSR) was > 2500 nM, the IC50 (GT3TKB) was 1600 nM and the IC50 (LAN-6) was > 2500 nM. For the same compound, the IC50 (D-263MG) was 85.1 nM, the IC50 (ETK-1) was > 2500 nM and the IC50 (COLO-829) was > 2500 nM. For the same compound, the IC50 (MV4-11) was 139 nM, the IC50 (GR-ST) was > 2500 nM and the IC50 (KE-37) was > 2500 nM. The IC50 (C2BBe1) was > 2500 nM, the IC50 (PSN1) was > 2500 nM and the IC50 (SW 962) was > 2500 nM. The IC50 (ONS-76) was > 2500 nM, the IC50 (ML-2) was > 2500 nM and the IC50 (LB373-MEL-D) was > 2500 nM.
With `C[C@]12O[C@H](C[C@]1(O)CO)n1c3ccccc3c3c4c(c5c6ccccc6n2c5c31)CNC4=O` [LESTAURTINIB] the IC50 (L-363) was 147 nM, the IC50 (HL-60) was 149 nM and the IC50 (HD-MY-Z) was 13.9 nM. For the same compound, the IC50 (IST-MES1) was > 2000 nM, the IC50 (MC116) was 190 nM and the IC50 (LU-134-A) was 600 nM. For the same compound, the IC50 (KS-1) was 375 nM, the IC50 (BT-474) was > 2000 nM and the IC50 (NKM-1) was 47.3 nM. For the same compound, the IC50 (HT) was 1130 nM, the IC50 (LS-411N) was 322 nM and the IC50 (SF-268) was 326 nM. For the same compound, the IC50 (SF-126) was 273 nM, the IC50 (no-10) was > 2000 nM and the IC50 (VA-ES-BJ) was 389 nM. The IC50 (BB49-HNC) was 1640 nM, the IC50 (HC-1) was 922 nM and the IC50 (NCI-H82) was > 2000 nM. For the same compound, the IC50 (TE-5) was > 2000 nM, the IC50 (NCI-H1355) was > 2000 nM and the IC50 (MHH-NB-11) was 1110 nM. The IC50 (DOHH-2) was 184 nM, the IC50 (EC-GI-10) was 535 nM and the IC50 (MZ2-MEL) was 236 nM. For the same compound, the IC50 (CTB-1) was 497 nM, the IC50 (MOLT-4) was 70.2 nM and the IC50 (NCI-H747) was 1050 nM. The IC50 (L-428) was > 2000 nM, the IC50 (MFH-ino) was > 2000 nM and the IC50 (OVCAR-4) was > 2000 nM. It also gave an IC50 (NMC-G1) of 411 nM, an IC50 (LAMA-84) of 48.5 nM and an IC50 (EW-11) of 132 nM. The IC50 (NCI-H1299) was 925 nM, the IC50 (LXF-289 cell line) was 1020 nM and the IC50 (ES7) was 94.8 nM. For the same compound, the IC50 (NOMO-1) was 149 nM, the IC50 (EM-2) was 450 nM and the IC50 (DSH1) was 992 nM. The IC50 (LS-1034) was > 2000 nM, the IC50 (NCI-H526) was > 2000 nM and the IC50 (MLMA) was 146 nM. For the same compound, the IC50 (EW-16) was 226 nM, the IC50 (NCI-H720) was 48.5 nM and the IC50 (J-RT3-T3-5) was 365 nM. It also gave an IC50 (DU-4475) of 97.8 nM, an IC50 (RS4-11) of 61.9 nM and an IC50 (HCE-T) of 179 nM. For the same compound, the IC50 (K562) was > 2000 nM, the IC50 (SH-4) was 110 nM and the IC50 (NCI-H2126) was > 2000 nM. The IC50 (COLO-320-HSR) was > 2000 nM, the IC50 (GT3TKB) was 389 nM and the IC50 (LAN-6) was > 2000 nM. It also gave an IC50 (D-263MG) of 971 nM, an IC50 (ETK-1) of 856 nM and an IC50 (COLO-829) of 1160 nM. For the same compound, the IC50 (MV4-11) was < 7.81 nM, the IC50 (GR-ST) was 494 nM and the IC50 (KE-37) was 16.8 nM. For the same compound, the IC50 (C2BBe1) was 361 nM, the IC50 (PSN1) was 231 nM and the IC50 (SW 962) was 154 nM. The IC50 (ONS-76) was 136 nM, the IC50 (ML-2) was 195 nM and the IC50 (LB373-MEL-D) was > 2000 nM.
